We go through 1 compound from ChEMBL document CHEMBL4261608, “Design, synthesis and anti-mycobacterial activity evaluation of benzofuran-isatin hybrids” (Eur J Med Chem, 2018).

For the experiment, the system named is Mycobacterium tuberculosis. The experiment is described as follows: Antimycobacterial activity against ethambutol/isoniazid/rifampicin-resistant Mycobacterium tuberculosis incubated for 7 days by rapid direct susceptibility test. Format: functional. As to conditions: 168 h.

For orientation: MIC means the smallest concentration in the dilution series that meets the test's criterion for growth inhibition. Read a low MIC as greater potency. Consider `NNC(=O)c1ccncc1` [ISONIAZID], for which the MIC was more than 128 µg/mL.
